Assay results reported in ChEMBL document CHEMBL1201862, “PubChem BioAssay data set” (2004).
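How tested: cells in 96-well plates exposed to compound for 48 hours at five concentrations. GI50 marks 50% less growth.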 The source made the active and inactive calls. No stated cut-off is given here; in the data, active = GI50 up to about 1.1 µM and inactive = higher.

Legend:
Assay in all cases: inhibition of tumour cell growth, NCI panel, 48 h
A549 = test system: A549
CCRF-CEM = test system: CCRF-CEM
HCT-116 = test system: HCT-116
HOP-62 = test system: HOP-62
K562 = test system: K562
M14 = test system: M14
MDA-MB-231 = test system: MDA-MB-231
OVCAR-4 = test system: OVCAR-4
SF-268 = test system: SF-268
SF-539 = test system: SF-539
SK-MEL-28 = test system: SK-MEL-28
SK-OV-3 = test system: SK-OV-3
SN12C = test system: SN12C
SNB-75 = test system: SNB-75
SW-620 = test system: SW-620
TK-10 = test system: TK-10
U-251 = test system: U-251
Malme-3M = test system: Malme-3M
LOX IMVI = test system: LOX IMVI

Measured: GI50

CC(C)(Br)C(Br)CCC1(C(Br)CBr)CO1 (stereo unspecified)
inactive: A549 > 10 µM | CCRF-CEM > 10 µM | HCT-116 > 10 µM | HOP-62 > 10 µM | K562 > 10 µM | M14 > 10 µM | MDA-MB-231 > 10 µM | OVCAR-4 > 10 µM | SF-268 > 10 µM | SF-539 > 10 µM | SK-MEL-28 > 10 µM | SK-OV-3 > 10 µM | SN12C > 10 µM | SNB-75 > 10 µM | SW-620 > 10 µM | TK-10 > 10 µM | U-251 > 10 µM

COC(=O)C1C=CN(N(C)C)C2=C1C(=O)c1c(O)cccc1C2=O (stereo unspecified)
inactive: A549 2.47 µM | CCRF-CEM 2.22 µM | HCT-116 1.92 µM | HOP-62 2.68 µM | K562 3.09 µM | M14 1.69 µM | MDA-MB-231 1.89 µM | Malme-3M 1.53 µM | OVCAR-4 2.17 µM | SF-268 3.83 µM | SK-MEL-28 1.94 µM | SK-OV-3 6.19 µM | SN12C 1.73 µM | SNB-75 1.66 µM | SW-620 2.28 µM | TK-10 4.27 µM | U-251 3.29 µM

CC(C)Oc1c(C2(c3ccccc3)SCCCS2)c(=O)c1=O
inactive: A549 > 100 µM | CCRF-CEM 45.6 µM | HCT-116 > 100 µM | HOP-62 > 100 µM | LOX IMVI > 100 µM | M14 > 100 µM | MDA-MB-231 > 100 µM | OVCAR-4 > 100 µM | SF-268 > 100 µM | SF-539 > 100 µM | SK-MEL-28 > 100 µM | SK-OV-3 > 100 µM | SN12C > 100 µM | SNB-75 > 100 µM | SW-620 > 100 µM | TK-10 > 100 µM | U-251 > 100 µM

COC(=O)c1c(C(=O)OC)c(C(c2ccccc2)c2ccccc2)n(-c2ccccc2)c1Cl
inactive: A549 7.03 µM | CCRF-CEM 4.61 µM | HCT-116 3.7 µM | HOP-62 > 10 µM | K562 4.14 µM | M14 > 10 µM | MDA-MB-231 > 10 µM | Malme-3M 5.79 µM | OVCAR-4 6.49 µM | SF-268 > 10 µM | SF-539 > 10 µM | SK-MEL-28 > 10 µM | SN12C > 10 µM | SW-620 7.43 µM | TK-10 > 10 µM | U-251 6.73 µM

N#C/C(C(=O)Nc1ccc(Cl)cc1)=C(/N)N1CCCCC1
inactive: A549 > 100 µM | CCRF-CEM > 100 µM | HCT-116 99.5 µM | HOP-62 41.3 µM | K562 > 100 µM | LOX IMVI 83.4 µM | M14 85.1 µM | SF-539 75.7 µM | SK-MEL-28 > 100 µM | SK-OV-3 72.6 µM | SN12C > 100 µM | SNB-75 24.7 µM | SW-620 > 100 µM | U-251 56.5 µM

COc1ccc(N[S+]([O-])CCCc2ccccc2)cc1 (stereo unspecified)
inactive: A549 65 µM | CCRF-CEM > 100 µM | HCT-116 > 100 µM | HOP-62 > 100 µM | K562 75.5 µM | LOX IMVI > 100 µM | MDA-MB-231 > 100 µM | Malme-3M > 100 µM | OVCAR-4 > 100 µM | SF-268 > 100 µM | SF-539 > 100 µM | SK-MEL-28 > 100 µM | SN12C > 100 µM | SW-620 > 100 µM | TK-10 > 100 µM | U-251 72.3 µM

OCCN(CCO)c1ccc2c(-c3ccccc3)cc(N(CCO)CCO)nc2n1
inactive: A549 > 100 µM | CCRF-CEM > 100 µM | HCT-116 > 100 µM | HOP-62 > 100 µM | K562 > 100 µM | M14 > 100 µM | MDA-MB-231 > 100 µM | Malme-3M > 100 µM | OVCAR-4 > 100 µM | SF-268 > 100 µM | SK-MEL-28 > 100 µM | SK-OV-3 > 100 µM | SN12C > 100 µM | SNB-75 > 100 µM | SW-620 > 100 µM | TK-10 > 100 µM | U-251 > 100 µM

COc1ccc(/C=C(\C(=O)OCC(C)C)c2ccc(OC)c(OC)c2)cc1OC
inactive: A549 > 100 µM | CCRF-CEM > 100 µM | HCT-116 > 100 µM | HOP-62 74 µM | K562 > 100 µM | LOX IMVI 74.6 µM | M14 32.5 µM | MDA-MB-231 31 µM | OVCAR-4 > 100 µM | SF-268 > 100 µM | SF-539 > 100 µM | SK-MEL-28 > 100 µM | SN12C > 100 µM | SNB-75 47.2 µM | SW-620 > 100 µM | TK-10 > 100 µM | U-251 56.2 µM
